Reference: patent publication US20240166635A1, “AMINOHETEROARYL KINASE INHIBITORS” (Anrui Biomedical Technology (Guangzhou) Co.,Ltd., priority 2020, published 2024)

Experiments:
Format in all cases: biochemical
CDK2/CyclinE1 = CDK2/CyclinE1 (Homo sapiens (Human), UniProt P24941); test: CDK2/CyclinE1 kinase inhibitory activity (Caliper mobility shift); conditions: read-out: CDK2/Cyclin El IC50
CDK7/CyclinH/MAT1 = CDK7/CyclinH/MAT1 (Homo sapiens (Human), UniProt P50613); test: CDK7/CyclinH/MAT1 kinase inhibitory activity (Caliper mobility shift)
CDK7/CyclinH/MAT1, sequence (P50613 whole entry): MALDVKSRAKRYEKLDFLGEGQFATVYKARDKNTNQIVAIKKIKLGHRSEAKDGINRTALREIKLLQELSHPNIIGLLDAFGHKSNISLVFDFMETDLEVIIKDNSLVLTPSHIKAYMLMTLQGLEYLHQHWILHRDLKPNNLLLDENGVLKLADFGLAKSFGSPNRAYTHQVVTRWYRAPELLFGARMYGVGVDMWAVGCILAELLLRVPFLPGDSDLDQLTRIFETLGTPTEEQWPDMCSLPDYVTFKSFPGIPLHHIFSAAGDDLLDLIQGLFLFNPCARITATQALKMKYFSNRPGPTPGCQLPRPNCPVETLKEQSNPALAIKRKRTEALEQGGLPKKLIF
CDK7/CyclinH/MAT1, sequence (P51946 whole entry partner): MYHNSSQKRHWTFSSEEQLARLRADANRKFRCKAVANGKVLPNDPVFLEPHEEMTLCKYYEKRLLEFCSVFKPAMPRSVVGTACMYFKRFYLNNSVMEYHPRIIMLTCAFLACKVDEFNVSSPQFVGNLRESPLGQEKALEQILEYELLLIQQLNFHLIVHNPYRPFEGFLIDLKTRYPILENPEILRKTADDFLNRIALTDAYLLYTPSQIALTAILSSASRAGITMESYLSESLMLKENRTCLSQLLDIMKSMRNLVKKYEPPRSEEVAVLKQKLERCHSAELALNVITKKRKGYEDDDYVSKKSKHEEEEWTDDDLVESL
CDK7/CyclinH/MAT1, sequence (P51948 whole entry partner): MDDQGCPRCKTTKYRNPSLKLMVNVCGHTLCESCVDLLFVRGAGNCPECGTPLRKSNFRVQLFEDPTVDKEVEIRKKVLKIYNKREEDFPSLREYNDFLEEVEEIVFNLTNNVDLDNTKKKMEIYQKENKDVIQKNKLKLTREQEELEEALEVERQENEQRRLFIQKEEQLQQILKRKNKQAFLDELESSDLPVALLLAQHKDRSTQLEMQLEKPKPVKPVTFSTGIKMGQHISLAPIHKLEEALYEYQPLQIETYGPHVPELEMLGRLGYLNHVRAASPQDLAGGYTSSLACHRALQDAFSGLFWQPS

CDK1/CyclinB = CDK1/CyclinB (Homo sapiens (Human), UniProt P06493); test: CDK1/CyclinB kinase inhibitory activity (Caliper mobility shift); conditions: read-out: CDK1/Cyclin B1 IC50
CDK1/CyclinB, sequence (P06493 whole entry): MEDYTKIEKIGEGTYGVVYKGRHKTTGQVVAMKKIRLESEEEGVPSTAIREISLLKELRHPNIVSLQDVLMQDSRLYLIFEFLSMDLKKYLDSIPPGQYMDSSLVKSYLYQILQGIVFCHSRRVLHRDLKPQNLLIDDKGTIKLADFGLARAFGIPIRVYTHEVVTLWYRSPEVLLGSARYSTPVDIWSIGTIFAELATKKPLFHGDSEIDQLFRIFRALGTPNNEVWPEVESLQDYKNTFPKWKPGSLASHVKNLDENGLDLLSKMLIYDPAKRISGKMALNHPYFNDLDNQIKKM
CDK1/CyclinB, sequence (P14635 whole entry partner): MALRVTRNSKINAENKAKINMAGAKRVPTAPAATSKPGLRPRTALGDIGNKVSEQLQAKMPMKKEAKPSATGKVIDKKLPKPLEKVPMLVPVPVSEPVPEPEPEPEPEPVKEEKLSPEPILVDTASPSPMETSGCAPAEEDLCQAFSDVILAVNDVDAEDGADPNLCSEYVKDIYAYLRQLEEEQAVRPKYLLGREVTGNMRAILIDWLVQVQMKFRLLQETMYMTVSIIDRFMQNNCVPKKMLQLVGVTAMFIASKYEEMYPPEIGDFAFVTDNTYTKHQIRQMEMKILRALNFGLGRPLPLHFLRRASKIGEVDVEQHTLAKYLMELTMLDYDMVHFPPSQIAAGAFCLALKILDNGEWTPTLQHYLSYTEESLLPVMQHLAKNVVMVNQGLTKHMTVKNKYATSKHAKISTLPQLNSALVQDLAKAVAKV

CDK6/CyclinD1 = CDK6/CyclinD1 (Homo sapiens (Human), UniProt Q00534); test: CDK6/CyclinD1 kinase inhibitory activity (Caliper mobility shift); conditions: read-out: CDK6/Cyclin D1 IC50
CDK6/CyclinD1, sequence (Q00534 whole entry): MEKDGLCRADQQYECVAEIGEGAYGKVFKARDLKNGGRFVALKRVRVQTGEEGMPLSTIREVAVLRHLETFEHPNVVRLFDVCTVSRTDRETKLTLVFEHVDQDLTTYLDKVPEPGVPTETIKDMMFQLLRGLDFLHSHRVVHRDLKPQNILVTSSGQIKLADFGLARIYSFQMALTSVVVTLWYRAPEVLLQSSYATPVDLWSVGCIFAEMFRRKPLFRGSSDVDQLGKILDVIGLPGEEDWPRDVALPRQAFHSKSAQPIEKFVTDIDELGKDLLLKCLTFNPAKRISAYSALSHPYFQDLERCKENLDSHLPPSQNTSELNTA
CDK6/CyclinD1, sequence (P24385 whole entry partner): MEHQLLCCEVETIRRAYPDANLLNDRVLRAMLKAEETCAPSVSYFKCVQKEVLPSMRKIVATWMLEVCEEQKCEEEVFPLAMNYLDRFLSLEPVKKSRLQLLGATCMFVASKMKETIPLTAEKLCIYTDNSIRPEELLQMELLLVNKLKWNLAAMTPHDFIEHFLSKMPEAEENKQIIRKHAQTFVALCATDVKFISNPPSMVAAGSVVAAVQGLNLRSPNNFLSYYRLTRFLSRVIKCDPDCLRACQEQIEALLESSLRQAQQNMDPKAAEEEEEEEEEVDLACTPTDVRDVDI

CDK9/CyclinT1 = CDK9/CyclinT1 (Homo sapiens (Human), UniProt P50750); test: CDK9/CyclinT1 kinase inhibitory activity (Caliper mobility shift); conditions: read-out: CDK9/Cyclin T1 IC50
CDK9/CyclinT1, sequence (P50750 whole entry): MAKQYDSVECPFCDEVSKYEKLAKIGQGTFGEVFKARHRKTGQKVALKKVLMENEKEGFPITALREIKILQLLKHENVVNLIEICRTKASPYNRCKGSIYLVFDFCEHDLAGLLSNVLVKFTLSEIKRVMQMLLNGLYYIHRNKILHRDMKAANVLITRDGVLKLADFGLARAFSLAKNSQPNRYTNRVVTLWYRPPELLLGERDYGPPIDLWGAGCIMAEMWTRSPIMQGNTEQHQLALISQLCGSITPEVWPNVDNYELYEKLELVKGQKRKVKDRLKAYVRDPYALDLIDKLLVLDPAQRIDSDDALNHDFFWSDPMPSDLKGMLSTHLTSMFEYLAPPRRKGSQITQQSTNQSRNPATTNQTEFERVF
CDK9/CyclinT1, sequence (O60563 whole entry partner): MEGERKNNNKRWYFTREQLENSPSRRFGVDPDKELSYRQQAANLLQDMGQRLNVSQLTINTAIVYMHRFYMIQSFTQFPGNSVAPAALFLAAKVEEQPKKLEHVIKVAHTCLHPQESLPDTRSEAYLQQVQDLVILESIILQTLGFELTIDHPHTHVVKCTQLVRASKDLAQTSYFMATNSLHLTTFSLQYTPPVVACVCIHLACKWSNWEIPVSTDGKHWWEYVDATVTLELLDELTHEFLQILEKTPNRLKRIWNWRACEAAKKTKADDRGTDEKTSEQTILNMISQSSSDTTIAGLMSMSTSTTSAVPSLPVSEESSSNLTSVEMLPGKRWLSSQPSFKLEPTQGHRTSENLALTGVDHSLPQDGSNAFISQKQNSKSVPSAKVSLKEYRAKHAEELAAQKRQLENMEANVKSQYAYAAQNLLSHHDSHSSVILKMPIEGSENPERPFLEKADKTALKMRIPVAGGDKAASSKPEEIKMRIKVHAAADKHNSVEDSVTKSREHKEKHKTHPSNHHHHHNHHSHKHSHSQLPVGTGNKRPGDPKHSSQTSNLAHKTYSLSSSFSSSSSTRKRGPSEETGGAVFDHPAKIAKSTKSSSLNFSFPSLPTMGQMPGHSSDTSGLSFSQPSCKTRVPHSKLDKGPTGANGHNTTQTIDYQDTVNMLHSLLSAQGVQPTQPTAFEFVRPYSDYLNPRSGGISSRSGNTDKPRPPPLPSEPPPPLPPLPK

Compound	IC50 (CDK2/CyclinE1) [nM]	IC50 (CDK7/CyclinH/MAT1) [nM]	IC50 (CDK1/CyclinB) [nM]	IC50 (CDK6/CyclinD1) [nM]	IC50 (CDK9/CyclinT1) [nM]
N#Cc1cnc(Nc2ccc(S(N)(=O)=O)cc2)nc1OCC1(CO)CCCCC1 [Example 17]	< 10	≥ 1000	10 to 100	100 to 1000	100 to 1000
NS(=O)(=O)c1ccc(Nc2ncc(C(F)(F)F)c(OC3CCCCCC3O)n2)cc1 (single isomer, unassigned) [Example 118a]	< 10	100 to 1000	< 10		< 10
[2H]C([2H])([2H])NS(=O)(=O)c1ccc(Nc2ncc(C(F)(F)F)c(OC3CCOCCC3O)n2)cc1 (single isomer, unassigned) [Example 102d, 4-((4-((5-hydroxyoxepan-4-yl)oxy)-5-(trifluoromethyl)pyrimidin-2-yl)amino)-N-(methyl-d3)benzenesulfonamide]		≥ 1000	100 to 1000	100 to 1000	
CNS(=O)(=O)c1ccc(Nc2ncc(C(F)(F)F)c(O[C@H]3CCCOC[C@H]3O)n2)cc1 (single isomer, unassigned) [Example 103b, cis-4-((4-((3-hydroxyoxepan-4-yl)oxy)-5-(trifluoromethyl)pyrimidin-2-yl)amino)-N-(methyl-d3)benzenesulfonamide]	< 10			100 to 1000	
NS(=O)(=O)c1ccc(Nc2ncc(C(F)(F)F)c(OC3COCCC3O)n2)cc1 (single isomer, unassigned) [Example 115a]	< 10	10 to 100	10 to 100		
NS(=O)(=O)N1CCC(Nc2ncc(C(F)(F)F)c(OC3CCCCCC3O)n2)CC1 (single isomer, unassigned) [Example 122b]	< 10	10 to 100	10 to 100		10 to 100
N#Cc1cnc(Nc2ccc(S(N)(=O)=O)cc2)nc1N1CCCC1 [Example 67]	10 to 100	≥ 1000	100 to 1000		100 to 1000
[2H]C([2H])([2H])NS(=O)(=O)c1ccc(Nc2ncc(CC)c(OC3CCOCC3O)n2)cc1 (single isomer, unassigned) [Example 151b]	10 to 100		≥ 1000		≥ 1000
CC1CCCC(O)C1Oc1nc(Nc2ccc(S(N)(=O)=O)cc2)ncc1C(F)(F)F (single isomer, unassigned) [Example 112b]	< 10		100 to 1000		100 to 1000
N#Cc1cnc(Nc2ccc(S(N)(=O)=O)cc2)nc1N1CCC[C@@H](O)C1 [Example 70]	10 to 100	≥ 1000	100 to 1000		100 to 1000
N#Cc1cnc(Nc2ccc(S(N)(=O)=O)cc2)nc1OC1CCCC(O)C1 (single isomer, unassigned) [Example 21b]	10 to 100		100 to 1000		100 to 1000
CC(C)NS(=O)(=O)c1ccc(Nc2ncc(C3CC3)c(O[C@@H]3CCC[C@@H]3O)n2)cc1 (single isomer, unassigned) [Example 134b, cis-4-((5-cyclopropyl-4-((2-hydroxycyclopentyl)oxy)pyrimidin-2-yl)amino)-N-isopropylbenzenesulfonamide]	10 to 100		100 to 1000		100 to 1000
CC(C)NS(=O)(=O)c1ccc(Nc2ncc(C#N)c(OC3CCCCC3O)n2)cc1 (single isomer, unassigned) [Example 30a]	< 10		10 to 100		100 to 1000
CC(C)NS(=O)(=O)c1ccc(Nc2ncc(C#N)c(OC3CCCC3(C)O)n2)cc1 (single isomer, unassigned) [Example 35b]	< 10		10 to 100		100 to 1000
CC(C)NS(=O)(=O)c1ccc(Nc2ncc(Cl)c(OC3CCCC3O)n2)cc1 (single isomer, unassigned) [Example 138b]	< 10		10 to 100		100 to 1000
[2H]C([2H])([2H])NS(=O)(=O)c1ccc(Nc2ncc(CC)c(OC3CCOCC3(C)O)n2)cc1 (single isomer, unassigned) [Example 152b]	10 to 100		≥ 1000		≥ 1000
[2H]C([2H])([2H])NS(=O)(=O)c1ccc(Nc2ncc(C(F)(F)F)c(OC3CCOCCC3O)n2)cc1 (single isomer, unassigned) [Example 102b, 4-((4-((5-hydroxyoxepan-4-yl)oxy)-5-(trifluoromethyl)pyrimidin-2-yl)amino)-N-(methyl-d3)benzenesulfonamide]		100 to 1000	10 to 100	100 to 1000	
O=S(=O)(NC1CCOCC1)c1ccc(Nc2ncc(Cl)c(O[C@@H]3CCC[C@@H]3O)n2)cc1 (single isomer, unassigned) [Example 130b, cis-4-((5-chloro-4-((2-hydroxycyclopentyl)oxy)pyrimidin-2-yl)amino)-N-(tetrahydro-2H-pyran-4-yl)benzenesulfonamide]	10 to 100		10 to 100		100 to 1000
N#Cc1cnc(Nc2ccc(S(=O)(=O)NC3CC(F)(F)C3)cc2)nc1OC1CCCCC1O (single isomer, unassigned) [Example 32b]	10 to 100		100 to 1000		≥ 1000
Cc1cnc(Nc2ccc(S(=O)(=O)NC3CC3)cc2)nc1OC1CCCC1O (single isomer, unassigned) [Example 146b]	10 to 100		100 to 1000		≥ 1000

Compound	IC50 (CDK2/CyclinE1) [nM]	IC50 (CDK7/CyclinH/MAT1) [nM]	IC50 (CDK1/CyclinB) [nM]	IC50 (CDK6/CyclinD1) [nM]	IC50 (CDK9/CyclinT1) [nM]
NS(=O)(=O)c1ccc(Nc2ncc(Br)c(OC3CCCC3O)n2)cc1 (single isomer, unassigned) [Example 141b]	< 10		10 to 100		100 to 1000
CC(C)NS(=O)(=O)c1ccc(Nc2ncc(C#N)c(OC3CCCC3)n2)cc1 [Example 28]	< 10		10 to 100		100 to 1000
CC1(O)CCCCC1Oc1nc(Nc2ccc(S(N)(=O)=O)cc2)ncc1C#N (single isomer, unassigned) [Example 24b]	10 to 100		10 to 100		100 to 1000
N#Cc1cnc(Nc2ccc(S(N)(=O)=O)cc2)nc1N1CCC[C@H](O)C1 [Example 69]	< 10	100 to 1000	10 to 100		100 to 1000
N#Cc1cnc(Nc2ccc(S(N)(=O)=O)cc2)nc1OC1CCCC(O)C1 (single isomer, unassigned) [Example 21a]	< 10		100 to 1000		100 to 1000
CC1(O)CCCC1Oc1nc(NC2CCN(S(=O)(=O)CF)CC2)ncc1C#N (single isomer, unassigned) [Example 37b]	10 to 100		100 to 1000		≥ 1000
CS(=O)(=O)N1CCC(Nc2ncc(C(F)(F)F)c(OC3CCCCCC3O)n2)CC1 (single isomer, unassigned) [Example 121a]	< 10	10 to 100	10 to 100		100 to 1000
NS(=O)(=O)c1ccc(Nc2ncc(Cl)c(OC3CCCC3O)n2)cc1 (single isomer, unassigned) [Example 136b]	< 10		10 to 100		100 to 1000
N#Cc1cnc(Nc2ccc(S(N)(=O)=O)cc2)nc1N1CCC[C@@H](CO)C1 [Example 79]	10 to 100		100 to 1000		100 to 1000
CC1(O)CCCC1Oc1nc(NC2CCN(S(=O)(=O)CC3CC3)CC2)ncc1C#N (single isomer, unassigned) [Example 38b]	10 to 100		100 to 1000		≥ 1000
CNS(=O)(=O)c1ccc(Nc2ncc(C(F)(F)F)c(OC3CCOCC3O)n2)cc1 (single isomer, unassigned) [Example 116b]	10 to 100		100 to 1000		≥ 1000
C[C@@H]1C[C@@H](O)CCN1c1nc(Nc2ccc(S(N)(=O)=O)cc2)ncc1C#N [Example 76]	10 to 100		100 to 1000		100 to 1000
CCc1cnc(Nc2ccc(S(N)(=O)=O)cc2)nc1O[C@@H]1CCC[C@@H]1O (single isomer, unassigned) [Example 133b, cis-4-((5-ethyl-4-((2-hydroxycyclopentyl)oxy)pyrimidin-2-yl)amino)benzenesulfonamide]	< 10		100 to 1000		100 to 1000
CNS(=O)(=O)c1ccc(Nc2ncc(Br)c(OC3CCCC3O)n2)cc1 (single isomer, unassigned) [Example 142b]	< 10		10 to 100		100 to 1000
NS(=O)(=O)c1ccc(Nc2ncc(C(F)(F)F)c(OC3CCCCC3O)n2)cc1 (single isomer, unassigned) [Example 111a]	< 10		100 to 1000		100 to 1000
CS(=O)(=O)N1CCC(Nc2ncc(C#N)c(N3CCCCC3)n2)CC1 [Example 89]	10 to 100	≥ 1000	100 to 1000		≥ 1000
Cc1cnc(Nc2ccc(S(=O)(=O)NC(C)C)cc2)nc1OC1CCCC1O (single isomer, unassigned) [Example 147b]	10 to 100		100 to 1000		100 to 1000
[2H]C([2H])([2H])NS(=O)(=O)c1ccc(Nc2ncc(C(F)(F)F)c(OC3CCOCCC3O)n2)cc1 (single isomer, unassigned) [Example 102c, 4-((4-((5-hydroxyoxepan-4-yl)oxy)-5-(trifluoromethyl)pyrimidin-2-yl)amino)-N-(methyl-d3)benzenesulfonamide]		≥ 1000	100 to 1000	100 to 1000	
NS(=O)(=O)c1ccc(Nc2ncc(C(F)(F)F)c(OC3COCCC3O)n2)cc1 (single isomer, unassigned) [Example 115b]	10 to 100		100 to 1000		100 to 1000
N#Cc1cnc(Nc2ccc(S(N)(=O)=O)cc2)nc1OC1CCCC1CO (single isomer, unassigned) [Example 18a]	10 to 100		100 to 1000		100 to 1000
